In patent US4507487A, “Chemical compounds” (Bristol-Myers Company, priority 1983, dated 1985):
Converted amounts (≈) assume the structure as drawn. Where two headings read alike, the source gives them in different places.

Key:
[1] = test system: Penicillinsensitive S. aureus; experiment: MIC, two-fold serial agar dilution in Mueller-Hinton agar, group (G+)-Ia; assay type: cell-based; details: Staphylococcus aureus; (G+)-Ia, penicillin-sensitive S. aureus (5 strains); read-out: Geometric Mean of MIC
Procedure: (§1) In the primary evaluation of the compounds of this invention, the Minimum Inhibitory Concentrations (MIC's) of the compounds were determined by the two-fold serial agar dilution method in Mueller-Hinton agar against 32 strains of test organisms in six groups.

[2] = test system: Penicillinresistant S. aureus; experiment: MIC, two-fold serial agar dilution in Mueller-Hinton agar, group (G+)-Ib; assay type: cell-based; details: Staphylococcus aureus, read-out: Geometric Mean of MIC
Procedure: as §1
(G+)Ib: Penicillinresistant S. aureus (5 strains)

[3] = test system: Cephalothinsensitive E. coli, Kl. pneumoniae and Pr. mirabilis; experiment: MIC, two-fold serial agar dilution in Mueller-Hinton agar, group (G-)-Ia; assay type: cell-based; details: (G-)-Ia, cephalothin-sensitive E. coli (2), Kl. pneumoniae (1), Pr. mirabilis (2 strains); read-out: Geometric Mean of MIC
Procedure: as §1
(G-)Ia: Cephalothinsensitive E. coli (2 strains), Kl. pneumoniae (1
strain) and Pr. mirabilis (2 strains)

[4] = test system: Cephalothinresistant E. coli and Kl. pneumoniae; experiment: MIC, two-fold serial agar dilution in Mueller-Hinton agar, group (G-)-Ib; assay type: cell-based; details: read-out: Geometric Mean of MIC
Procedure: as §1
(G-)Ib: Cephalothinresistant E. coli (3 strains) and Kl. pneumoniae (3

[5] = test system: M. morganii, Ent. cloacae and Ser. marcescens; experiment: MIC, two-fold serial agar dilution in Mueller-Hinton agar, group (G-)-II; assay type: cell-based; details: read-out: Geometric Mean of MIC
Procedure: as §1
(G-)II: M. morganii (1 strain), Ent. cloacae (2 strains) and Ser.

Ps. aeruginosa = experiment: MIC, two-fold serial agar dilution in Mueller-Hinton agar, group (G-)-III; assay type: cell-based; details: Pseudomonas aeruginosa, Ps. aeruginosa (6 strains), read-out: Geometric Mean of MIC
Procedure: as §1

E. coli A15164 = experiment: MIC against specific test organism; assay type: cell-based; details: Escherichia coli; E. coli A15164, cephalothin-resistant strain; read-out: Minimum Inhibitory Concentration
Procedure: as §1
(§2) The test method was as described for Table 1.

E. coli Juhl = experiment: MIC against specific test organism; assay type: cell-based; details: Escherichia coli, read-out: Minimum Inhibitory Concentration
Procedure: as §1, §2

Ent. cloacae A9656 = experiment: MIC against specific test organism; assay type: cell-based; details: Enterobacter cloacae, read-out: Minimum Inhibitory Concentration
Procedure: as §1, §2

K. pneumoniae A9867 = experiment: MIC against specific test organism; assay type: cell-based; details: Klebsiella pneumoniae
Procedure: as §1, §2

K. pneumoniae D11 = experiment: MIC against specific test organism; assay type: cell-based; details: Klebsiella pneumoniae, read-out: Minimum Inhibitory Concentration
Procedure: as §1, §2

M. morganii A9553 = experiment: MIC against specific test organism; assay type: cell-based; details: Morganella morganii, read-out: Minimum Inhibitory Concentration
Procedure: as §1, §2

Pr. mirabilis A9554 = experiment: MIC against specific test organism; assay type: cell-based; details: Proteus mirabilis, read-out: Minimum Inhibitory Concentration
Procedure: as §1, §2

Ps. aeruginosa A15150 = experiment: MIC against specific test organism; assay type: cell-based; details: Pseudomonas aeruginosa, read-out: Minimum Inhibitory Concentration
Procedure: as §1, §2

Ps. aeruginosa A20717 = experiment: MIC against specific test organism; assay type: cell-based; details: Pseudomonas aeruginosa, read-out: Minimum Inhibitory Concentration
Procedure: as §1, §2

Ps. aeruginosa A9843 = experiment: MIC against specific test organism; assay type: cell-based; details: Pseudomonas aeruginosa, read-out: Minimum Inhibitory Concentration
Procedure: as §1, §2

S. aureus BX-1633-2 = experiment: MIC against specific test organism; assay type: cell-based; details: Staphylococcus aureus, BX16332; S. aureus BX-1633-2, penicillin-resistant strain; read-out: Minimum Inhibitory Concentration
Procedure: as §1, §2

S. aureus Smith = experiment: MIC against specific test organism; assay type: cell-based; details: Staphylococcus aureus, read-out: Minimum Inhibitory Concentration
Procedure: as §1, §2

Ser. marcescens A20019 = experiment: MIC against specific test organism; assay type: cell-based; details: Serratia marcescens, read-out: Minimum Inhibitory Concentration
Procedure: as §1, §2

[6] = Mouse blood levels after single intramuscular injection; assay type: in vivo, mice; details: for concentration at 10 min / concentration at 20 min / concentration at 0.5 h / concentration at 40 min / concentration at 50 min / concentration at 1 h / concentration at 1.5 h / concentration at 2 h: read-out: Mouse Blood Level; for concentration at 0.5 h: 30 minutes; for concentration at 1 h: 60 minutes; for concentration at 1.5 h: 90 minutes; for concentration at 2 h: 120 minutes
Procedure: The absorption of some of the preferred compounds were determined in mice following a single intramuscular injection of the test compound (dissolved in 0.1M phosphate buffer; pH 7) at a dosage of 10, 20 or 40 mg/kg. Blood samples were collected from the orbital sinuses into heparinized capillary tubes and assayed in Nutrient Agar (pH 6.6) using E. coli Ess-22-31 as the test organism. The blood levels at various time intervals, the half-life values (t1/2) and the areas under the curve (AUC) are shown in Table 3.

CO/N=C(\C(=O)NC1C(=O)N2C(C(=O)[O-])=C(C[n+]3ccsc3SC)CS[C@H]12)c1csc(N)n1 (some centres unmarked) [Example 3, 7-[(Z)-2-(2-Aminothiazol-4-yl)-2-(methoxyimino)acetamido]-3-(2-methylthiothiazolio)methyl-3-cephem-4-carboxylate]
MIC [1]: 0.23 mg/L (≈ 0.437 µM) | MIC [2]: 0.8 mg/L (≈ 1.52 µM) | MIC [3]: 0.022 mg/L (≈ 0.0418 µM) | MIC [4]: 0.15 mg/L (≈ 0.285 µM) | MIC [5]: 0.14 mg/L (≈ 0.266 µM) | MIC (Ps. aeruginosa): 2 mg/L (≈ 3.8 µM) | MIC (E. coli A15164): 0.1 mg/L (≈ 0.19 µM) | MIC (E. coli Juhl): 0.025 mg/L (≈ 0.0475 µM) | MIC (Ent. cloacae A9656): 0.05 mg/L (≈ 0.0949 µM) | MIC (K. pneumoniae A9867; K. pneumoniae A9867, cephalothin-resistant strain, read-out: Minimum Inhibitory Concentration): 0.8 mg/L (≈ 1.52 µM) | MIC (K. pneumoniae D11): 0.025 mg/L (≈ 0.0475 µM) | MIC (M. morganii A9553): 0.2 mg/L (≈ 0.38 µM) | MIC (Pr. mirabilis A9554): 0.05 mg/L (≈ 0.0949 µM) | MIC (Ps. aeruginosa A15150): 0.8 mg/L (≈ 1.52 µM) | MIC (Ps. aeruginosa A20717): 6.3 mg/L (≈ 12 µM) | MIC (Ps. aeruginosa A9843): 3.1 mg/L (≈ 5.89 µM) | MIC (S. aureus BX-1633-2): 0.8 mg/L (≈ 1.52 µM) | MIC (S. aureus Smith): 0.4 mg/L (≈ 0.76 µM) | MIC (Ser. marcescens A20019): 0.025 mg/L (≈ 0.0475 µM) | AUC ([6]; 10 mg/kg im): 18 µg·h/mL | half-life ([6]; 10 mg/kg im): 47 min | concentration at 10 min ([6]; 10 mg/kg im): 14 µg/mL | concentration at 20 min ([6]; 10 mg/kg im): 14 µg/mL | concentration at 0.5 h ([6]; 10 mg/kg im): 12 µg/mL | concentration at 40 min ([6]; 10 mg/kg im): 10 µg/mL | concentration at 50 min ([6]; 10 mg/kg im): 9.8 µg/mL | concentration at 1 h ([6]; 10 mg/kg im): 6.8 µg/mL | concentration at 1.5 h ([6]; 10 mg/kg im): 5.2 µg/mL | concentration at 2 h ([6]; 10 mg/kg im): 3.2 µg/mL | AUC ([6]; 20 mg/kg im): 29 µg·h/mL | half-life ([6]; 20 mg/kg im): 46 min | concentration at 10 min ([6]; 20 mg/kg im): 24 µg/mL | concentration at 20 min ([6]; 20 mg/kg im): 22 µg/mL | concentration at 0.5 h ([6]; 20 mg/kg im): 20 µg/mL | concentration at 40 min ([6]; 20 mg/kg im): 17 µg/mL | concentration at 50 min ([6]; 20 mg/kg im): 13 µg/mL | concentration at 1 h ([6]; 20 mg/kg im): 11 µg/mL | concentration at 1.5 h ([6]; 20 mg/kg im): 9.5 µg/mL | concentration at 2 h ([6]; 20 mg/kg im): 4.5 µg/mL | AUC ([6]; 40 mg/kg im): 60 µg·h/mL | half-life ([6]; 40 mg/kg im): 54 min | concentration at 10 min ([6]; 40 mg/kg im): 48 µg/mL | concentration at 20 min ([6]; 40 mg/kg im): 36 µg/mL | concentration at 0.5 h ([6]; 40 mg/kg im): 32 µg/mL | concentration at 40 min ([6]; 40 mg/kg im): 32 µg/mL | concentration at 50 min ([6]; 40 mg/kg im): 24 µg/mL | concentration at 1 h ([6]; 40 mg/kg im): 20 µg/mL | concentration at 1.5 h ([6]; 40 mg/kg im): 15 µg/mL | concentration at 2 h ([6]; 40 mg/kg im): 10 µg/mL

CSc1scc[n+]1CC1=C(C(=O)[O-])N2C(=O)C(NC(=O)/C(=N\OC(C)(C)C(=O)O)c3csc(N)n3)[C@H]2SC1 (some centres unmarked) [Example 1, 7-[(Z)-2-(2-Aminothiazol-4-yl)-2-(2-carboxyprop-2-oxyimino)acetamido]-3-(2-methylthiothiazolio)methyl-3-cephem-4-carboxylate]
MIC [1]: 1.2 mg/L (≈ 2 µM) | MIC [2]: 3.6 mg/L (≈ 6.01 µM) | MIC [3]: 0.038 mg/L (≈ 0.0635 µM) | MIC [4]: 0.69 mg/L (≈ 1.15 µM) | MIC ([5]; (G-)-II, M. morganii (1), Ent. cloacae (2), Ser. marcescens (2 strains)): 0.24 mg/L (≈ 0.401 µM) | MIC (Ps. aeruginosa): 1.4 mg/L (≈ 2.34 µM) | MIC (E. coli A15164): 0.8 mg/L (≈ 1.34 µM) | MIC (E. coli Juhl): 0.1 mg/L (≈ 0.167 µM) | MIC (Ent. cloacae A9656): 0.1 mg/L (≈ 0.167 µM) | MIC (K. pneumoniae A9867; A9867, read-out: Minimum Inhibitory Concentration): 1.6 mg/L (≈ 2.67 µM) | MIC (K. pneumoniae D11): 0.1 mg/L (≈ 0.167 µM) | MIC (M. morganii A9553): 0.1 mg/L (≈ 0.167 µM) | MIC (Pr. mirabilis A9554): 0.05 mg/L (≈ 0.0835 µM) | MIC (Ps. aeruginosa A15150): 0.8 mg/L (≈ 1.34 µM) | MIC (Ps. aeruginosa A20717): 3.1 mg/L (≈ 5.18 µM) | MIC (Ps. aeruginosa A9843): 1.6 mg/L (≈ 2.67 µM) | MIC (S. aureus BX-1633-2): 3.1 mg/L (≈ 5.18 µM) | MIC (S. aureus Smith): 1.6 mg/L (≈ 2.67 µM) | MIC (Ser. marcescens A20019): 0.1 mg/L (≈ 0.167 µM) | AUC ([6]; 10 mg/kg im): 5 µg·h/mL | half-life ([6]; 10 mg/kg im): 15 min | concentration at 10 min ([6]; 10 mg/kg im): 12 µg/mL | concentration at 20 min ([6]; 10 mg/kg im): 7.4 µg/mL | concentration at 0.5 h ([6]; 10 mg/kg im): 4.7 µg/mL | concentration at 40 min ([6]; 10 mg/kg im): < 3 µg/mL | AUC ([6]; 20 mg/kg im): 16 µg·h/mL | half-life ([6]; 20 mg/kg im): 14 min | concentration at 10 min ([6]; 20 mg/kg im): 33 µg/mL | concentration at 20 min ([6]; 20 mg/kg im): 24 µg/mL | concentration at 0.5 h ([6]; 20 mg/kg im): 18 µg/mL | concentration at 40 min ([6]; 20 mg/kg im): 9.4 µg/mL | concentration at 50 min ([6]; 20 mg/kg im): 6.7 µg/mL | concentration at 1 h ([6]; 20 mg/kg im): 3.5 µg/mL | concentration at 1.5 h ([6]; 20 mg/kg im): < 3 µg/mL | AUC ([6]; 40 mg/kg im): 25 µg·h/mL | half-life ([6]; 40 mg/kg im): 13 min | concentration at 10 min ([6]; 40 mg/kg im): 51 µg/mL | concentration at 20 min ([6]; 40 mg/kg im): 40 µg/mL | concentration at 0.5 h ([6]; 40 mg/kg im): 29 µg/mL | concentration at 40 min ([6]; 40 mg/kg im): 15 µg/mL | concentration at 50 min ([6]; 40 mg/kg im): 9 µg/mL | concentration at 1 h ([6]; 40 mg/kg im): 4.6 µg/mL | concentration at 1.5 h ([6]; 40 mg/kg im): < 3 µg/mL
